From patent US11072634B2, “Inhibitors of transglutaminases” (Zedira GmbH, priority 2016, dated 2021) come the findings set out here.

In experiment [1] the target is T1, recombinant human factor XIII A-subunit (rhFXIII-A, plasma transglutaminase) (Homo sapiens, UniProt P00488).
T1 construct: His6; purchased Zedira 1027 (so in the source); T027)
T1 sequence (P00488 39-732 limits assumed): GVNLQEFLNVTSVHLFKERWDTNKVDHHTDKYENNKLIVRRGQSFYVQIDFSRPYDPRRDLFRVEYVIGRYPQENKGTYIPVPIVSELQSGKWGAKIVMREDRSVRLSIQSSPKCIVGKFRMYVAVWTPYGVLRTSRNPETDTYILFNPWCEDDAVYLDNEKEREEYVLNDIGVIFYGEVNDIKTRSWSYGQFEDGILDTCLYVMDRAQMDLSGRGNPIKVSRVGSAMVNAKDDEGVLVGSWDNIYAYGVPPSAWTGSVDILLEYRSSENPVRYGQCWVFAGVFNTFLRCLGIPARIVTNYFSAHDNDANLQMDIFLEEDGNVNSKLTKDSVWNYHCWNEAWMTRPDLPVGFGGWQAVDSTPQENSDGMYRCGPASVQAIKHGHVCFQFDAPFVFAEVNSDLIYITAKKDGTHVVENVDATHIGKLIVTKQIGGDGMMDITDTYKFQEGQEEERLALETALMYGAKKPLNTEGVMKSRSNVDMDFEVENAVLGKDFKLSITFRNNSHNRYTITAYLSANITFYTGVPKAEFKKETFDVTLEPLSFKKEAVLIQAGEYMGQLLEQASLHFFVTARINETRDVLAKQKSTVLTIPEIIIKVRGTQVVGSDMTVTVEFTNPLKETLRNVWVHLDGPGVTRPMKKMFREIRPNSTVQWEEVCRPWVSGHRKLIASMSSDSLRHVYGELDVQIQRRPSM
In words: Inhibition of rec. human coagulation factor XIII (fluorescence, Abz-NE(CAD-DNP)EQVSPLILLK-OH). As to conditions: Table 3, FXIII inhibitors; read-out: IC50 FXIII. Type of experiment: biochemical. The protocol:
Method for Inhibition Studies of Rec. Human Coagulation Factor XIII (Plasma Transglutaminase, rhFXIII-A)
(§1) 50 μg lyophilized His-tagged recombinant human factor XIII A-subunit (His6-rhFXIII, Zedira product 1027) is reconstituted in H2O (volume depends on original volume before lyophilization) resulting in a buffer containing 20 mM Tris-HCl, 150 mM NaCl, 1 mM EDTA, 1 mM DTT, 189 mg/ml maltodextrin, pH=7.5. The rhFXIII stock solution is diluted in buffer (50 mM Tris-HCl, 7.5 mM CaCl2, 150 mM NaCl, pH=7.4) to give a working solution of 59 U/ml (based on the amine-incorporation activity measured using transglutaminase activity assay #1036 (Zedira GmbH), described below).
(§2) A 10 mM inhibitor stock solution is prepared in DMSO, and from this a serial 1:2-fold dilution series is prepared also in DMSO. Each of the initial dilutions is subsequently diluted 1:50-fold with buffer (50 mM Tris-HCl, 7.5 mM CaCl2, 150 mM NaCl, pH=7.4) to yield the final working dilutions containing 2% (v/v) DMSO.
(§3) 15 μl of inhibitor working dilution are added per well of a 96 well microtiter plate. As control, 15 μl of a 2% (v/v) DMSO solution prepared using the buffer mentioned above are added per well.
(§4) 480 μl of His6-rhFXIII working solution and 120 μl human alpha thrombin (0.5 NIH units/μl) are added to 10.8 ml assay buffer (50 mM Tris-HCl, 7.5 mM CaCl2, 150 mM NaCl, 5 mM DTT, 13.4 mM glycine methylester, 50 μM Abz-NE(CAD-DNP)EQVSPLILLK-OH, (Zedira product A101; patent No.: EP 1781807B1), pH=7.4). From this master-mix solution, 285 μl are added per well containing the inhibitor. Increase in fluorescence is measured using […] and λem=418 nm at 37° C. for 35 min. A slope of the increase in fluorescence between 20 and 30 min is calculated for determination of the IC50 value (inhibitor concentration at which 50% of the initial FXIII activity is blocked).
(§5) Analysis of enzymatic activity is performed by calculation of the slope of an increase in fluorescence intensity. IC50 values are calculated by plotting the enzymatic activity (as percentage from control containing 2% DMSO instead of inhibitor) against the inhibitor concentration. IC50 is defined as the inhibitor concentration blocking 50%) of initial enzyme activity.

The target in experiment [2] is T2, TG2 (Homo sapiens, UniProt P21980).
T2 sequence (P21980 1-687): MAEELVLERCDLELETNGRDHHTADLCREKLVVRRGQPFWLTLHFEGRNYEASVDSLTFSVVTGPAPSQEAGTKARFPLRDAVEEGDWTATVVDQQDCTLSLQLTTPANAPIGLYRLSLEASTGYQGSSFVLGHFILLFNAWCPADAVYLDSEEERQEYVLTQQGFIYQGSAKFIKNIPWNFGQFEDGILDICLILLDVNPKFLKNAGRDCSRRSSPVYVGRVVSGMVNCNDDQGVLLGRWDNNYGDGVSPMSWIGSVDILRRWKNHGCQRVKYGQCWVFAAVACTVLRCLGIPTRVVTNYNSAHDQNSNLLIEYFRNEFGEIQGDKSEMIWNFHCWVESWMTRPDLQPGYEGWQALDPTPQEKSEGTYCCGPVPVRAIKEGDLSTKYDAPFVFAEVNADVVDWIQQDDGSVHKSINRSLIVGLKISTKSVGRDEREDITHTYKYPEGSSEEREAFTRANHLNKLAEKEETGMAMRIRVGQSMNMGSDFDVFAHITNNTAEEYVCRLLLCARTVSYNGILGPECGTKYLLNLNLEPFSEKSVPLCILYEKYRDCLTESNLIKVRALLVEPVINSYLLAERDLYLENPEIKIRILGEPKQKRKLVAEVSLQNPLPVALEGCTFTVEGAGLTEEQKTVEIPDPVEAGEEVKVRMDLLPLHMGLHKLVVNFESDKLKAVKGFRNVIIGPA
The experiment can be described thus: FXIII assay format using TG2 instead of FXIII (selectivity of FXIIIa blockers). The experiment is classed as biochemical. As to conditions: Table 3, selectivity with respect to TG2; read-out: IC50 TG2. The protocol: as §1, §2, §3, §4
This assay was also used to determine selectivity of inhibitors preferentially blocking FXIIIa by using TG2 instead of FXIII.
as §5

Experiment [3] relates to fresh citrated whole blood. The experiment can be described thus: Thromboelastometry (ROTEM delta) in whole blood with t-PA. The following applies: human whole blood; for reduction of maximum clot firmness (MCF) compared to control (K): 6.25-50 μM, with t-PA; for clot lysis at 60 minutes (LI60): in the presence of 0.02% t-PA. As for the experimental part:
Thromboelastometry is a visco-elastic method for the assessment of blood coagulation. In whole blood parameters like clotting time (CT), clot formation time (CFT), maximum clot firmness (MCF) and lysis index at 60 min (LI60) were obtained using the ROTEM® delta device according to the manufacturer.
Briefly, 20 μL star-TEM® (0.2 mol/l CaCl2), 20 μL r ex-TEM® (recombinant tissue factor, phospholipids, heparin inhibitor), 10 μL inhibitor stock solution (1.8-0.23 mM), combined with 10 μL t-PA stock solution (0.72 μg/ml) to yield concentrations of 0.9-0.11 mM in 18% DMSO/PBS with 0.36 μg/ml t-PA and 300 μL fresh citrated whole blood (human, from healthy consenting donors) were mixed in a disposable cuvette. As control the inhibitor stock solution was replaced by 36% DMSO/0.36 μg/ml t-PA in PBS.

In general, IC50 refers to the point on the concentration scale where inhibition reaches its midpoint.

*1 amine or outer side, *2 acyl side, *3 side chain or, on linkers, in order; H or OH if unused. Where a SMILES comes first, the peptide text is derived from it. [ ]: non-standard residue; d: D form. The star is where a group is joined. Nle(5,6-dioxo,6-NHMe) = CNC(=O)C(=O)CC[C@H](N)C(=O)O; X1 = CCCCCNC(=O)C(=O)CC[C@H](N[*:1])C(=O)[*:2]; Isonicotinoyl(3-COOH) = O=C(O)c1cnccc1C(=O)*; Pro(4-oxo) = O=C1CN[C@H](C(=O)O)C1; Chg = N[C@H](C(=O)O)C1CCCCC1; Tle = CC(C)(C)[C@H](N)C(=O)O; Nle = CCCC[C@H](N)C(=O)O

With `CNC(=O)C(=O)CC[C@H](NC(=O)c1ccncc1C(=O)O)C(=O)N[C@H](C(=O)N1CC(=O)C[C@H]1C(=O)N[C@H](C(=O)N[C@H](C(N)=O)C1CCCCC1)C1CCCCC1)C(C)(C)C` [Compound E25, 4-((S)-1-((S)-1-((S)-2-((S)-2-((S)-2-amino-1-cyclonexyl-2-oxoethylamino)-1-cyclonexyl-2-oxoethylcarbamoyl)-4-oxopyrrolidin-1-yl)-3,3-dimethyl-1-oxobutan-2-ylamino)-6-(methylamino)-1,5,6-trioxohexan-2-ylcarbamoyl)nicotinic acid] ({Isonicotinoyl(3-COOH)}-[Nle(5,6-dioxo,6-NHMe)][Tle][Pro(4-oxo)][Chg][Chg]-NH2), the IC50 is 50 nM in experiment [1] and 5500 nM in experiment [2]. Further, the “reduction of maximum clot firmness (MCF) compared to control (K)” value in experiment [3] is “dose dependent influence”. Moreover, the “clot lysis at 60 minutes (LI60)” value in experiment [3] is “dose dependent influence”.
For `CCCCCNC(=O)C(=O)CC[C@H](NC(=O)c1ccncc1C(=O)O)C(=O)N[C@H](C(=O)N1CC(=O)C[C@H]1C(=O)N[C@H](C(=O)N[C@H](C(N)=O)C1CCCCC1)C1CCCCC1)C(C)(C)C` [Compound E27, 4-((S)-1-((S)-1-((S)-2-((S)-2-((S)-2-amino-1-cyclohexyl-2-oxoethylamino)-1-cyclohexyl-2-oxoethylcarbamoyl)-4-oxopyrrolidin-1-yl)-3,3-dimethyl-1-oxobutan-2-ylamino)-6-1,5,6-trioxo-6-(pentylamino)hexan-2-ylcarbamoyl)nicotinic acid] ({Isonicotinoyl(3-COOH)}-[X1][Tle][Pro(4-oxo)][Chg][Chg]-NH2), the IC50 stood at 60 nM in experiment [1] and 7800 nM in experiment [2]. Besides, the “reduction of maximum clot firmness (MCF) compared to control (K)” value in experiment [3] is “dose dependent influence”. In addition, the “clot lysis at 60 minutes (LI60)” value in experiment [3] was “dose dependent influence”.
`CCCC[C@H](NC(=O)[C@H](CCC(=O)C(=O)NC)NC(=O)CNC(=O)[C@@H]1CCCN1C(=O)CNC(C)=O)C(=O)N[C@H](C(=O)N[C@@H](CC(C)C)C(=O)N1CCC[C@H]1C(=O)N[C@@H](Cc1c[nH]c2ccccc12)C(N)=O)[C@@H](C)CC` [Compound E36, (S)-2-(2-((S)-1-(2-acetamidoacetyl)pyrrolidine-2-carboxamido)acetamido)-N1-((S)-1-((2S,3S)-1-((S)-1-((S)-2-((S)-1-amino-3-(1H-indol-3-yl)-1-oxopropan-2-ylcarbamoyl)pyrrolidin-1-yl)-4-methyl-1-oxopentan-2-ylamino)-3-methyl-1-oxopentan-2-ylamino)-1-oxohexan-2-yl)-N6-methyl-5-oxohexanediamide] (Ac-GPG[Nle(5,6-dioxo,6-NHMe)][Nle]ILPW-NH2): the IC50 in experiment [1] worked out at 3100 nM; in experiment [2], 800 nM.
On the same counts, the results for `CCCC[C@H](NC(=O)[C@H](CCC(=O)C(=O)NC)NC(=O)CNC(=O)[C@@H]1CCCN1C(=O)CNC(=O)[C@H](CC(C)C)NC(C)=O)C(=O)N[C@H](C(=O)N[C@@H](CC(C)C)C(=O)N1CCC[C@H]1C(=O)N[C@@H](Cc1c[nH]c2ccccc12)C(N)=O)[C@@H](C)CC` [Compound E37, (S)-2-(2-((S)-1-(2-((S)-2-acetamido-4-methylpentanamido)acetyl)pyrrolidine-2-carboxamido)acetamido)-N1-((S)-1-((2S,3S)-1-((S)-1-((S)-2-((S)-1-amino-3-(1H-indol-3-yl)-1-oxopropan-2-ylcarbamoyl)pyrrolidin-1-yl)-4-methyl-1-oxopentan-2-ylamino)-3-methyl-1-oxopentan-2-ylamino)-1-oxohexan-2-yl)-N6-methyl-5-oxohexanediamide] (Ac-LGPG[Nle(5,6-dioxo,6-NHMe)][Nle]ILPW-NH2) are 2500 nM and 390 nM.
